{"source": "patent USRE40594E1", "about": "“Inhibitors of the bitter taste response” (Mount Sinai School of Medicine of New York University, priority 1998, dated 2008)", "key": {"[1]": {"system": "glossopharyngeal nerve responses of C57BL/6J mice", "experiment": "Glossopharyngeal nerve recording on lingual stimulation with tastants", "format": "in vivo", "procedure": "Nerve Recording. Glossopharyngeal nerve responses were recorded from male C57BL/6J mice as previously described (Ninomiya, Y., et al., 1997, Am. J. Physiol. (London) 272:R1002-RI006). Each mouse was anesthetized with intraperitoneal injection of sodium pentobarbital (40-50 mg/kg) and maintained at a surgical level of anesthesis with supplemental injections of the drug. The trachea was cannulated, and the mouse was then fixed in the supine position with a head holder to allow dissection of the glossopharyngeal nerve. The hypoglossal nerve was transected bilaterally to prevent inadvertent tongue movements. The right glossopharyngeal nerve was exposed by removal of the digastric muscle and posterior horn of the hyoid bone. The glossopharyngeal nerve was then dissected free from underlying tissues and cut near its entrance to the posterior foramen lacerum. The entire nerve was placed on a silver wire electrode for whole nerve recording. An indifferent electrode was positioned nearby in the wound. […] Whole nerve responses were integrated by using an RMS-DC converter (Hendrick, Tallahassee, Fla.) with a time constant of 0.5 s. For chemical stimulation of the circumvallate and foliate papillae, an incision was made on each side of the animal's face from the comer of the mouth to just above the angle of the jaw, the papillae were exposed, and their trenches opened via slight tension applied through a small suture sewn in the tip of the tongue. Tastant solutions were delivered to the tongue by gravity flow, and flowed over the tongue for a controlled period. The stability of each preparation was monitored by the periodic application of 0.1 M NH4Cl. A recording was considered to be stable when the 0.1 M NH4Cl response magnitudes at the beginning and end of each stimulation series deviated by no more than 15%. Only responses from stable recordings were used in the data analysis. In the analysis of whole nerve responses, the magnitudes of the integrated response at 20, 25, 30, 35. and 40 s after stimulus onset were measured and averaged to generate tonic responses: the tonic response represents the sustained nerve response to continuous tastant stimulation of taste receptor cells. The relative tonic response for each stimulus was obtained by normalization to the response from 0.1 M NH4Cl (the tonic response of NH4Cl was defined as 1.0). Student's t test was used for statistical analysis."}, "C57BL/6J mice": {"system": "C57BL/6J mice", "experiment": "Forty-eight-hour two-bottle preference test (behavioral assay)", "format": "in vivo", "procedure": "Behavioral Assays. Multiple sets of male C57BL/6J mice from the Jackson Laboratory were tested. Each set (n=10) was tested with tastant±AMP or GMP. Between tests, mice were provided with acidified water (pH 4.5) for about 2 wk. Tested mice ranged in age from 8 to 20 wk. Mice were individually housed, provided with food ad libitum (Pico Lab Mouse Diet 20 no. 5058; PMI Feeds, St. Louis, Mo.) and presented with distilled water in two sipper bottles for 48 h before testing. During each 48-h test period, a given concentration of tastant was provided in one sipper bottle, whereas the other had distilled water. After 24 h, volumes consumed were recorded, the bottles refilled, and positions reversed (to control for positional cues). Tastants were presented in ascending concentration. Preference ratios were calculated as the fraction of tastant consumed as a percentage of the total volume of liquid consumed. Mean preference ratios and Student's t tests were calculated from total collected data."}, "[2]": {"settings": "DEN, QUI and other bitter compounds"}}, "note": "“Also recorded” adds a separate entry of the source."}
{"smiles": "Nc1ncnc2c1ncn2[C@@H]1O[C@H](COP(=O)(O)O)[C@@H](O)[C@H]1O", "note": "[AMP, adenosine 5′ monophosphate]", "values": [{"measurement": "inhibition of glossopharyngeal nerve responses to atropine", "setting": "[1]; 1.0 mM ATR, inhibitor 0.1 mM, FIGS. 4A-C", "result": "significantly inhibited"}, {"measurement": "inhibition of glossopharyngeal nerve responses to sparteine", "setting": "[1]; 1.0 mM SPA, inhibitor 0.1 mM, FIGS. 4A-C, 4I (P<0.001)", "result": "inhibits; also recorded: significantly inhibited"}, {"measurement": "inhibition of glossopharyngeal nerve responses to strychnine", "setting": "[1]; 1.0 mM STR, inhibitor 0.1 mM, FIGS. 4A-C", "result": "significantly inhibited"}, {"measurement": "effect on glossopharyngeal nerve responses to SC45647", "setting": "[1]; 3.0 mM SC45647, 0.1 mM AMP, P<0.01, FIG. 4I", "result": "inhibits; also recorded: inhibited slightly; also recorded: did diminish"}, {"measurement": "inhibition of glossopharyngeal nerve responses to DEN", "setting": "[1]; 5.0 mM DEN, inhibitor 0.1 mM, FIGS. 4A-C", "result": "significantly inhibited"}, {"measurement": "effect on glossopharyngeal nerve responses to HCl", "setting": "[1]; 5.0 mM HCl, 0.1 mM AMP, FIG. 4I", "result": "did not affect"}, {"measurement": "effect on glossopharyngeal nerve responses to NH4Cl", "setting": "[1]; 0.1 M NH4Cl, 0.1 mM AMP", "result": "did not affect"}, {"measurement": "effect on glossopharyngeal nerve responses to NaCl", "setting": "[1]; 0.1 M NaCl, 0.1 mM AMP, FIG. 4I", "result": "did not affect"}, {"measurement": "effect on glossopharyngeal nerve responses to sucrose", "setting": "[1]; 0.5 M sucrose, 0.1 mM AMP, FIG. 4I", "result": "did not affect"}, {"measurement": "inhibition of relative tonic glossopharyngeal responses to rising DEN concentrations", "setting": "[1]; DEN 0.1, 0.5, 1.0, 5.0, 10.0 mM, AMP 0.1 and 1.0 mM, n=5 to 7, FIG. 4G", "result": "significantly inhibited"}, {"measurement": "inhibition of gustatory (glossopharyngeal) nerve responses to bitter compounds, summary statement", "setting": "[1]; [2]", "result": "diminishes"}, {"measurement": "inhibition of relative tonic glossopharyngeal responses to rising QUI concentrations", "setting": "[1]; QUI 0.1, 0.3, 1.0 mM, AMP 0.1 and 1.0 mM, n=6 to 8, FIG. 4H", "result": "significantly inhibited; also recorded: reached a plateau"}, {"measurement": "inhibition of glossopharyngeal nerve responses to QUI", "setting": "[1]; QUI 0.1 and 1.0 mM, inhibitor 0.1 mM, FIGS. 4D-F", "result": "significantly inhibited"}, {"measurement": "shift of DEN dose-aversiveness curve", "setting": "C57BL/6J mice; AMP 0.1, 1.0, 5.0 mM, FIG. 3B", "result": "shifted the dose-aversiveness curve to the right"}, {"measurement": "concentration at which AMP alone elicits behavioral responses", "setting": "C57BL/6J mice; AMP alone, two-bottle preference, FIG. 3B", "result": "≥ 0.5", "unit": "mM"}, {"measurement": "inhibitory effect on aversive responses at highest concentration of DEN", "setting": "C57BL/6J mice; DEN 5.0 mM, FIGS. 3A-B", "result": "eliminated; also recorded: overcame"}, {"measurement": "inhibition of aversive responses to DEN", "setting": "C57BL/6J mice; DEN 0.05, 0.10, 0.50, 1.0 mM, inhibitor 0.1 and 1.0 mM, n=10, P<0.001, FIG. 3A", "result": "inhibited"}, {"measurement": "inhibition of behavioral (aversive) responses to bitter compounds, summary statement", "setting": "C57BL/6J mice; [2]", "result": "blocks"}, {"measurement": "effect on behavioral responses to HCl", "setting": "C57BL/6J mice; HCl 0.01 and 0.10 mM, 0.1 mM AMP, FIG. 3E", "result": "did not alter; also recorded: did not affect"}, {"measurement": "effect on behavioral responses to NaCl", "setting": "C57BL/6J mice; NaCl 0.1 and 0.3 M, 0.1 mM AMP, FIG. 3E", "result": "did not alter; also recorded: did not affect"}, {"measurement": "inhibitory effect on aversive responses at highest concentration of QUI", "setting": "C57BL/6J mice; QUI 1.0 mM, FIGS. 3C-D", "result": "eliminated; also recorded: overcame"}, {"measurement": "inhibition of aversive responses to QUI", "setting": "C57BL/6J mice; QUI 0.05, 0.10, 0.50 mM, inhibitor 0.1 and 0.5 mM, n=10, P<0.001, FIG. 3C", "result": "inhibited"}, {"measurement": "effect on behavioral responses to SC45647", "setting": "C57BL/6J mice; SC45647 0.01 and 0.10 mM, 0.1 mM AMP, FIG. 3E", "result": "did not alter; also recorded: did not affect; also recorded: did not diminish"}, {"measurement": "inhibition of aversive responses to sparteine (SPA)", "setting": "C57BL/6J mice; SPA 0.05 and 0.10 mM, 0.1 mM AMP, P<0.001, FIG. 3E", "result": "inhibited"}, {"measurement": "inhibition of aversive responses to (−)-epicatechin", "setting": "C57BL/6J mice; epicatechin 0.05 and 0.10 mM, 0.1 mM AMP, P<0.01, FIG. 3E", "result": "inhibited"}, {"measurement": "shift of QUI dose-aversiveness curve", "setting": "C57BL/6J mice; increasing concentrations of AMP, FIG. 3D", "result": "shifted the dose-aversiveness curve to the right"}, {"measurement": "effect on behavioral responses to sucrose", "setting": "C57BL/6J mice; sucrose 5.0 and 150 mM, 0.1 mM AMP, FIG. 3E", "result": "did not alter; also recorded: did not affect"}]}
